How the values were obtained:
Format in all cases: in vivo
[1] = tested on: lambsquarters (Chenopodium album); assay: General postemergence herbicidal activity, lambsquarters; conditions: post-emergence, 336 h, 140 g ai/ha, postemergence, after 14 d, 0 = no injury, 100 = complete kill, read-out: CHEAL % Visual Injury
Summary of the method: (§1)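 Greenhouse plants at first to second true leaf stage sprayed overhead at 187 L/ha in acetone/DMSO with crop oil concentrate and surfactant, at a high rate plus ½× to 1/16× serial dilutions. Injury rated visually after 14 d against solvent-blank controls, 0 (none) to 100% (complete kill).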

[2] = tested on: sicklepod (Casia obtusifolia); assay: Postemergence herbicidal activity in corn, sicklepod; conditions: corn test, visual rating after 21 d, probit analysis, dose to kill or control 80 percent
Method: (§2) Seeds of corn and the desired weed species were planted in Sun Gro MetroMix 360 planting mixture, which typically has a pH of 6.0 to 6.8 and an organic matter content of about 30 percent, in plastic pots with a surface area of 95 cm^2. When required to ensure good germination and healthy plants, a fungicide treatment and/or other chemical or physical treatment was applied. The plants were grown for 7-21 d in a greenhouse with an approximate 15-h photoperiod which was maintained at about 23-29° C. during the day and 22-28° C. during the night. Nutrients and water were added on a regular basis and supplemental lighting was provided with overhead metal halide 1000-Watt lamps as necessary. The corn plants were utilized for testing when they reached the second true leaf stage. The weed species were utilized at the first or second true leaf stage.
(§3) A weighed amount, determined by the highest rate to be tested, of each test compound was dissolved in 4 mL of a 97:3 v/v mixture of acetone and DMSO to obtain concentrated stock solutions. […] The concentrated stock solutions obtained were diluted with 20 mL of an aqueous mixture containing acetone, water, isopropyl alcohol, DMSO, Atplus 411F crop oil concentrate, and Triton X-155 surfactant in a 48.5:39:10:1.5:1.0:0.02 v/v ratio to obtain spray solutions containing the highest application rates. […]
(§4) The treated plants and control plants were placed in a greenhouse as described above and watered by sub-irrigation to prevent wash-off of the test compounds. After 21 d, the condition of the test plants as compared with that of the untreated plants was determined visually and scored on a scale of 0 to 100 percent where 0 corresponds to no injury and 100 corresponds to complete kill. […]

corn (Zea mays) [3] = assay: General postemergence herbicidal activity, corn; conditions: post-emergence, 336 h, 140 g ai/ha, postemergence, after 14 d, 0 = no injury, 100 = complete kill, read-out: ZEAMX % Visual Injury
Summary of the method: as §1

[4] = tested on: wild buckwheat (Polygonum convululus); assay: Postemergence herbicidal activity in corn, wild buckwheat; conditions: corn test, visual rating after 21 d, probit analysis, dose to kill or control 80 percent
Method: as §2, §3, §4

corn (Zea mays) [5] = assay: Postemergence herbicidal activity in corn, crop; conditions: visual rating after 21 d, probit analysis, dose to kill or control 20 percent
Method: as §2, §3, §4

[6] = tested on: wild buckwheat (Polygonum convululus); assay: General postemergence herbicidal activity, wild buckwheat; conditions: post-emergence, 336 h, 140 g ai/ha, postemergence, after 14 d, 0 = no injury, 100 = complete kill, read-out: POLCO % Visual Injury
Summary of the method: as §1

[7] = tested on: velvetleaf (Abutilon theophrasti); assay: General postemergence herbicidal activity, velvetleaf; conditions: post-emergence, 336 h, 140 g ai/ha, postemergence, after 14 d, 0 = no injury, 100 = complete kill, read-out: ABUTH % Visual Injury
Summary of the method: as §1

[8] = tested on: pigweed, redroot (Amaranthus retroflexus); assay: Postemergence herbicidal activity in corn, redroot pigweed; conditions: corn test, visual rating after 21 d, probit analysis, dose to kill or control 80 percent
Method: as §2, §3, §4

[9] = tested on: lambsquarters (Chenopodium album); assay: Postemergence herbicidal activity in corn, lambsquarters; conditions: corn test, visual rating after 21 d, probit analysis, dose to kill or control 80 percent
Method: as §2, §3, §4

C=CCONC(=O)c1nc(-c2ccc(Cl)c(OC)c2F)cc(N)c1Cl [Compound 3, N-(2-Propenyloxy)-4-amino-3-chloro-6-(4-chloro-2-fluoro-3-methoxyphenyl)picolinamide]
pest or weed control at 140 g/ha [1]: 100%
CASOB GR80 [2]: 5 g ai/ha
plant injury at 140 g/ha (corn (Zea mays) [3]): 0%
POLCO GR80 [4]: <4 g ai/ha
ZEAMX GR20 (corn (Zea mays) [5]): >35 g ai/ha
pest or weed control at 140 g/ha [6]: 100%
pest or weed control at 140 g/ha [7]: 100%
AMARE GR80 [8]: 5 g ai/ha
CHEAL GR80 [9]: <4 g ai/ha

From patent US20130324412A1, “N-ALKOXYAMIDES OF 6-(SUBSTITUTED PHENYL)-4-AMINOPICOLINATES AND 2-(SUBSTITUTED PHENYL)-6-AMINO-4-PYRIMIDINECARBOXYLATES AND THEIR USE AS SELECTIVE HERBICIDES FOR CROPS” (DOW AGROSCIENCES LLC, priority 2009, published 2013)
